In US20050239715A1, “Inhibition of allergic contact dermatitis by N-L-alpha-aspartyl-L-phenylalanine 1-methyl ester” (priority 2004, published 2005):
Residues, ends and D or L forms follow the SMILES beside them.

What was measured:
[1] = system: Urushiol-Induced Dermatitis on Human Skin; test: Example 3: treatment and prevention of urushiol-induced dermatitis on human skin (Patient 1); assay type: in vivo; details: topical lotion 0.5 to 1 mg APM/ml, two to three times per day, also two packets Equal by mouth
Method: The goats frequently consumed and were in contact with both poison sumac and poison ivy abundant in their enclosure without experiencing symptoms.
A topical APM preparation was made by mixing 2 to 3 packets of Equal® brand sweetner (80-120 mg of APM) with approximately 170 ml (5.5 fluid ounces) of lotion containing Vaseline® Intensive Care® Water Resistant Moisturizing Lotion (Unilever United States, Inc.), resulting in a lotion with 0.5 to 1 mg APM/ml. Patient 1 had previously used the lotion base without effect. Patient 1 also took two packets of Equal® brand sweetener by mouth in response to a symptom of diarrhea, a condition known to be associated with urishiol.
A soap and water scrub of the affected area was done one hour after application of the cream, and the affected area allowed to air dry.
Additional affected areas were then discovered on Patient 1, and a lotion was prepared for Patient 1 to use on these areas as well as unaffected areas that could come in contact with poison ivy during their work. Patient 1 used additional topical APM preparation approximately two to three times per day.

[2] = system: human rash secondary to urushiol exposure; test: Example 4: treatment of rash caused by urushiol; assay type: in vivo
Method: A human rash, with itching, in progress secondary to contact with an animal known to have had significant exposure to urushiol substances was arrested in 8 hours with 2 applications of aspartame in a Vaseline Intensive Care Lotion base (about 1.2 to 10 mg/ml). The itching ceased, and discomfort and irritation resolved within 8 hours.

[3] = system: allergic contact dermatitis, skin previously exposed to urushiol; test: Example 1: treatment of allergic contact dermatitis with APM in a cream base; assay type: in vivo; details: thin film of APM in cream base, after sixty (60) minutes
Text: To an area of skin previously exposed to urushiol is applied a thin film of APM in a cream base. […] Further treatment may include washing the affected area to remove and displace urushiol dissolved in the applied lotion and followed by reapplication of APM containing cream or lotion.

[4] = system: Urushiol-Induced Dermatitis on Human Skin; test: Example 2: prevention of urushiol-induced dermatitis on human skin; assay type: in vivo; details: thin film of APM suspended in petroleum cream base applied before exposure
Text: To an area of skin which may be exposed to urushiol is applied a thin film of APM suspended in a petroleum cream base.

[5] = system: capsaicin taste receptor (heat and irritation of the tongue); test: Oral application of APM with capsaicin-containing red pepper sauce; assay type: in vivo
Text: The variability in observable results in preventing dermatitis or topical irritation appear related to the amount of APM that is applied, the time and order of the therapeutic application, and the presence of receptors to which either the irritant oil or APM may bind.

[6] = system: capsaicin burning of the eye; test: Example 7: capsaicin burning of the eye; assay type: in vivo, human; details: about 10 mg per 250 microliters in sterile saline applied to eye
Method: A kitchen worker is exposed to capsaicin oil from peppers during cooking preparation, the oil is transferred to their hands and then, by their hands, to their eyes, resulting in a burning sensation and pain. […] The application may be repeated in 15 min because tearing may dilute or wash away the active ingredients.

[7] = system: capsaicin burning and pain of mucosa; test: Example 8: APM after inadvertent mucosal contact with capsaicin cream; assay type: in vivo, human; details: preparation of 38 mg APM per 5 ml applied to affected area
Method: A patient is treated for arthritis with a capsaicin cream applied twice daily to the affected joint. Capsaicin is absorbed by the transdermal tissue and then transported to joint area. After an appropriate interval, for instance 2-5 days, significant reduction in swelling, heat, redness, and pain is observed. However, the patient also inadvertently contacts his or her urethra, periurethra tissues, vaginal mucosa, rectal mucosa, eyes, or nose with the capsaicin cream, resulting in a sensation of burning and pain in the affected area.

[8] = cited from earlier work

COC(=O)[C@H](Cc1ccccc1)NC(=O)[C@@H](N)CC(=O)O [APM, N-L-alpha-aspartyl-L-phenylalanine 1-methyl ester] (H-Asp-Phe-OMe)
rash or reaction observed on the day after application [1]: no rash or reaction had occurred
time in which rash with itching was arrested ([2]; 2 applications in Vaseline Intensive Care Lotion base, about 1.2 to 10 mg/ml): 8 h
time in which itching ceased and discomfort and irritation resolved ([2]; 2 applications in lotion base, about 1.2 to 10 mg/ml): ≤ 8 h
state of rash overnight ([2]; overnight after 2 applications in lotion base): the rash was gone
symptoms of allergic contact dermatitis [3]: significantly reduced
symptoms of allergic contact dermatitis [4]: either do not appear or are significantly reduced
perception of spiciness of red pepper sauce ([5]; APM applied orally before red pepper sauce): absence of recognition of the spicyness
APM response after long duration of exposure to capsaicin ([5]; long exposure with secondary effects): not as strong nor as quick
response when APM is applied after sensations of heat and irritation developed ([5]; red pepper sauce applied to tongue first, APM after): manifested and recognized quickly
burning sensation of the eye [6]: alleviated
burning and pain of affected area [7]: reducing or eliminating the burning and pain
pH at which cyclisation with formation of diketopiperazine occurs in APM solutions [8]: greater than 5
